From patent EP0908457B1, “3-(1,2-benzisothiazol- and isoxazol-5-Y1)-2,4(1H,3H)-pyrimidinedione or thione and 3-(1,2-benzisothiazol- and isoxazol-5-y1)-4(3H)-pyrimidinone or thione herbicidal agents” (BASF AKTIENGESELLSCHAFT, priority 1997, dated 1999)

Key:
[1] = system: Cyperus serotinus, Rottb.; experiment: Preemergence weed control under flooded paddy conditions, CYPSE (Flatsedge); type: in vivo; conditions: preemergence, rated three to four weeks after treatment
[2] = system: Echinochloa oryzoides (Ard.) Fritsch.; experiment: Preemergence weed control under flooded paddy conditions, ECHORC (Watergrass (Calif.)); type: in vivo; conditions: preemergence, flooded paddy, rated three to four weeks after treatment
Sagittaria pygmaea, L. = experiment: Preemergence weed control under flooded paddy conditions, SAGPY (Arrowhead (Pygmaea)); type: in vivo; conditions: preemergence, flooded paddy, rated three to four weeks after treatment
[3] = system: Oryza sativa, (L.) Tebonnet; experiment: Rice tolerance to post-transplant applications under flooded paddy conditions (Example 187), ORYSAT (Rice, Tebonnet); conditions: rated three to four weeks after treatment
[4] = system: Monochoria vaginalis, Presl.; experiment: Preemergence weed control under flooded paddy conditions, MOOVA (Monochoria); type: in vivo; conditions: preemergence, flooded paddy, rated three to four weeks after treatment
Cyperus iria = experiment: Preemergence weed control under flooded paddy conditions, CYPIR (Rice Flatsedge); type: in vivo; conditions: preemergence, flooded paddy, rated three to four weeks after treatment
Note: meaning of each grade not given here.

Compound	herbicidal effect rating, CYPSE ([1]; Rate 0.0320 kg/ha)	herbicidal effect rating, CYPSE ([1]; Rate 0.0620 kg/ha)	herbicidal effect rating, CYPSE ([1]; Rate 0.1250 kg/ha)	herbicidal effect rating, CYPSE ([1]; Rate 0.2500 kg/ha)	herbicidal effect rating, ECHORC ([2]; Rate 0.0320 kg/ha)	herbicidal effect rating, ECHORC ([2]; Rate 0.0620 kg/ha)	herbicidal effect rating, ECHORC ([2]; Rate 0.1250 kg/ha)	herbicidal effect rating, ECHORC ([2]; Rate 0.2500 kg/ha)	herbicidal effect rating, SAGPY (Sagittaria pygmaea, L.; Rate 0.0320 kg/ha)	herbicidal effect rating, SAGPY (Sagittaria pygmaea, L.; Rate 0.0620 kg/ha)	herbicidal effect rating, SAGPY (Sagittaria pygmaea, L.; Rate 0.1250 kg/ha)	herbicidal effect rating, SAGPY (Sagittaria pygmaea, L.; Rate 0.2500 kg/ha)	herbicidal effect rating ORYSAT ([3]; Rate 0.0320 kg/ha)	herbicidal effect rating ORYSAT ([3]; Rate 0.0620 kg/ha)	herbicidal effect rating ORYSAT ([3]; Rate 0.1250 kg/ha)	herbicidal effect rating ORYSAT ([3]; Rate 0.2500 kg/ha)	herbicidal effect rating, MOOVA ([4]; Rate 0.0320 kg/ha)	herbicidal effect rating, MOOVA ([4]; Rate 0.0620 kg/ha)	herbicidal effect rating, MOOVA ([4]; Rate 0.1250 kg/ha)	herbicidal effect rating, MOOVA ([4]; Rate 0.2500 kg/ha)	further results
COC(C)c1nsc2ccc(-n3c(=O)cc(C(F)(F)F)n(C)c3=O)cc12 (stereo not drawn) [Example 350, 2,4(1H,3H)-Pyrimidinedione, 3-[3-(1-methoxyethyl)-1,2-benzisothiazol-5-yl]-1-methyl-6-(trifluoromethyl)-]	7.5	8.5	8.5	9.0	6.0	7.5	8.0	9.0	5.5	7.0	7.5	9.0	9.0	9.0	9.0	9.0	9.0	9.0	9.0	9.0	herbicidal effect rating, CYPIR (Cyperus iria; Rate 0.0320 kg/ha): 4.0; herbicidal effect rating, CYPIR (Cyperus iria; Rate 0.0620 kg/ha): 5.0; herbicidal effect rating, CYPIR (Cyperus iria; Rate 0.1250 kg/ha): 9.0; herbicidal effect rating, CYPIR (Cyperus iria; Rate 0.2500 kg/ha): 9.0
Cn1c(C(F)(F)F)cc(=O)n(-c2ccc3snc(C(=O)NS(=O)(=O)c4ccccc4)c3c2)c1=O [Example 352, 1,2-Benzisothiazole-3-carboxamide, 5-[3,6-dihydro-3-methyl-2,6-dioxo-4-(trifluoromethyl)-1(2H)-pyrimidinyl]-N-(phenylsulfonyl)-]	0.0	0.0	1.0	0.0	2.5	4.0	6.5	9.0	2.5	5.0	9.0	9.0	0.5	1.0	2.5	3.0	6.0	9.0	9.0	9.0	herbicidal effect rating, CYPIR (Cyperus iria; Rate 0.0320 kg/ha): 2.0; herbicidal effect rating, CYPIR (Cyperus iria; Rate 0.0620 kg/ha): 6.5; herbicidal effect rating, CYPIR (Cyperus iria; Rate 0.1250 kg/ha): 7.5; herbicidal effect rating, CYPIR (Cyperus iria; Rate 0.2500 kg/ha): 9.0
Cc1ccc(S(=O)(=O)NC(=O)c2nsc3ccc(-n4c(=O)cc(C(F)(F)F)n(C)c4=O)cc23)cc1 [Example 353, 1,2-Benzisothiazole-3-carboxamide, 5-[3,6-dihydro-3-methyl-2,6-dioxo-4-(trifluoromethyl)-1(2H)-pyrimidinyl]-N-(p-tolylsulfonyl)-]	0.0	0.0	1.5	2.5	0.0	2.0	2.5	3.0	0.0	0.0	0.0	0.0	2.5	3.0	3.5	4.0	3.5	6.5	8.0	8.0	herbicidal effect rating, CYPIR (Cyperus iria; Rate 0.0320 kg/ha): 0.0; herbicidal effect rating, CYPIR (Cyperus iria; Rate 0.0620 kg/ha): 0.0; herbicidal effect rating, CYPIR (Cyperus iria; Rate 0.1250 kg/ha): 1.0; herbicidal effect rating, CYPIR (Cyperus iria; Rate 0.2500 kg/ha): 3.0
Cc1ccc(OCC(=O)N(C)O)c(-c2nsc3ccc(-n4c(=O)cc(C(F)(F)F)n(C)c4=O)cc23)c1 [Example 355, Acetohydroxamic acid, 2-{{2-{5-[3,6-dihydro-3-methyl-2,6-dioxo-4-(trifluoromethyl)-1(2H)pyrimidinyl]-1,2-benzisothiazol-3-yl}-p-tolyl}oxy}-N-methyl-]	0.0	1.0	3.5	5.0	7.0	9.0	9.0	9.0	2.0	4.5	4.5	9.0	2.5	3.0	5.5	5.0	9.0	9.0	9.0	9.0	herbicidal effect rating, CYPIR (Cyperus iria; Rate 0.0320 kg/ha): 4.5; herbicidal effect rating, CYPIR (Cyperus iria; Rate 0.0620 kg/ha): 4.5; herbicidal effect rating, CYPIR (Cyperus iria; Rate 0.1250 kg/ha): 6.5; herbicidal effect rating, CYPIR (Cyperus iria; Rate 0.2500 kg/ha): 5.0
Cn1c(C(F)(F)F)cc(=O)n(-c2ccc3snc(C(=O)NS(=O)(=O)c4ccc(Cl)cc4)c3c2)c1=O [Example 356, 1,2-Benzisothiazole-3-carboxamide, N-[(p-chlorophenyl)sulfonyl]-5-[3,6-dihydro-3-methyl-2,6-dioxo-4-(trifluoromethyl)-1(2H)-pyrimidinyl]-]	0.0	0.0	5.0	6.5	3.5	5.0	6.5	9.0	4.5	4.5	5.5	8.0	0.5	2.5	4.5	2.0	7.5	9.0	9.0	9.0	herbicidal effect rating, CYPIR (Cyperus iria; Rate 0.0320 kg/ha): 6.5; herbicidal effect rating, CYPIR (Cyperus iria; Rate 0.0620 kg/ha): 9.0; herbicidal effect rating, CYPIR (Cyperus iria; Rate 0.1250 kg/ha): 9.0; herbicidal effect rating, CYPIR (Cyperus iria; Rate 0.2500 kg/ha): 9.0
Cn1c(C(F)(F)F)cc(=O)n(-c2ccc3snc(C(=O)NS(=O)(=O)c4ccc5ccccc5c4)c3c2)c1=O [Example 357, 1,2-Benzisothiazole-3-carboxamide, 5-[3,6-dihydro-3-methyl-2,6-dioxo-4-(trifluoromethyl)-1(2H)-pyrimidinyl]-N-(2-naphthylsulfonyl)-]	0.0	0.0	0.0	0.0	4.0	5.0	5.0	7.0	0.0	0.0	0.0	4.0	2.0	2.0	2.0	3.0	9.0	9.0	9.0	9.0	herbicidal effect rating, CYPIR (Cyperus iria; Rate 0.0320 kg/ha): 0.0; herbicidal effect rating, CYPIR (Cyperus iria; Rate 0.0620 kg/ha): 0.0; herbicidal effect rating, CYPIR (Cyperus iria; Rate 0.1250 kg/ha): 2.0; herbicidal effect rating, CYPIR (Cyperus iria; Rate 0.2500 kg/ha): 6.0
CCCCCCCCCCCCS(=O)(=O)NC(=O)c1nsc2ccc(-n3c(=O)cc(C(F)(F)F)n(C)c3=O)cc12 [Example 358, 1,2-Benzisothiazole-3-carboxamide, 5-[3,6-dihydro-3-methyl-2,6-dioxo-4-(trifluoromethyl)-1(2H)-pyrimidinyl]-N-(dodecylsulfonyl)-]	0.0	0.0	0.0	0.0	4.0	5.0	5.0	5.0	5.0	5.0	6.0	6.0	2.0	3.0	3.0	3.0	9.0	9.0	9.0	9.0	herbicidal effect rating, CYPIR (Cyperus iria; Rate 0.0320 kg/ha): 0.0; herbicidal effect rating, CYPIR (Cyperus iria; Rate 0.0620 kg/ha): 0.0; herbicidal effect rating, CYPIR (Cyperus iria; Rate 0.1250 kg/ha): 0.0; herbicidal effect rating, CYPIR (Cyperus iria; Rate 0.2500 kg/ha): 7.0
